COc1c(N2CCNC(C)C2)c(F)cc2c(=O)c(C(=O)O)cn(C3CC3)c12 (configuration not stated)
solubility (mole fraction)
Settings	273.15 K	278.15 K	283.15 K	288.15 K	293.15 K	298.15 K	303.15 K	308.15 K	313.15 K	318.15 K
in 1,4-dioxane	–	–	–	0.000952	0.00111	0.00129	0.00149	0.00172	0.00198	0.00228
in 2-butanone	0.00158	0.00186	0.00219	0.00257	0.003	0.00349	0.00405	0.00468	0.00539	0.0062
in DMF	0.00259	0.00305	0.00359	0.00417	0.00486	0.00566	0.00653	0.00751	0.00864	0.00989
in acetone	0.00081	0.000942	0.00111	0.0013	0.00152	0.00177	0.00204	0.00235	0.0027	0.00309
in acetonitrile	0.0013	0.0015	0.00177	0.00208	0.00244	0.00281	0.00322	0.0037	0.00424	0.00485
in ethanol	0.000261	0.000326	0.000403	0.000489	0.000585	0.000698	0.000829	0.000984	0.00116	0.00136
in ethyl acetate	0.00323	0.00378	0.0044	0.00509	0.00588	0.00679	0.00778	0.00893	0.0102	0.0117
in isopropanol	0.000123	0.000158	0.000204	0.000254	0.000322	0.000401	0.000498	0.000613	0.000751	0.000912
in methanol	0.00019	0.000232	0.000294	0.00036	0.000438	0.000531	0.000637	0.000752	0.000902	0.00107
in n-butanol	0.00105	0.00122	0.00143	0.00169	0.00195	0.00225	0.0026	0.00299	0.00344	0.00395
in n-propanol	0.000364	0.000445	0.000545	0.000655	0.000778	0.000922	0.00109	0.00127	0.00149	0.00173
in toluene	5.9e-05	8.1e-05	0.000109	0.000146	0.000199	0.000261	0.000344	0.000446	0.000577	0.000742
